Measurements: patent US20150105429A1, “BENZYL SULFONAMIDE DERIVATIVES AS RORC MODULATORS” (Genentech, Inc., priority 2011, published 2015)

target: T1, RORc ligand binding domain (Homo sapiens, UniProt P51449); experiment: In Vitro RORc Ligand Binding Assay; settings: radioligand 25-[3H]hydroxycholesterol 6 nM; 0.6 ug/mL RORc receptor; 3 h at 25° C.; read-out: IC50 values (micromolar) for RORc affinity
T1 construct: host or cells: E. coli
T1 sequence (P51449 269-508 limits assumed): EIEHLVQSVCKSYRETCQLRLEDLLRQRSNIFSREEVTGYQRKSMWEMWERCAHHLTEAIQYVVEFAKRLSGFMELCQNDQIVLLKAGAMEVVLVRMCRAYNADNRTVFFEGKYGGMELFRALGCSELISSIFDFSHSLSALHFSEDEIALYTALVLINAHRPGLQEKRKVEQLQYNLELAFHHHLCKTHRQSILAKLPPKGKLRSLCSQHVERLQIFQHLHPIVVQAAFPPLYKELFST
Method: This assay was used to determine a compound's potency in inhibiting activity of RORc by determining, Kiapp, IC50, or percent inhibition values.
On day of the assay, 100 uL of 0.05% CHAPS (in deionized H2O) was added to all wells of the GFB Unifilter plate and allowed soak for 1 h. A wash buffer of 50 mM HEPES (pH 7.4), 150 mM NaCl, and 5 mM MgCl2 was prepared to wash the filter plate. To prepare an assay buffer, BSA was added to the wash buffer to reach 0.01% and DTT was added to reach 1 mM.
The 20× compound stocks were diluted in DMSO with Assay Buffer 4-fold to reach 5× the final test concentration in 25% DMSO (10 uL compound+30 uL Assay Buffer). Solutions were mixed by aspiration several times with a pipette set on 50 uL volume. For the assay, 10 uL of 5× compound stock solutions in 25% DMSO were added to the assay plate in duplicate.
For two point screening, 10 mM stock compound solutions were diluted in DMSO to obtain 200 uM (20× the high test concentration) and then diluted 10-fold further to reach 20 uM (20× the low test concentration). The 20× stocks were diluted 4-fold with Assay Buffer (10 uL compound+30 uL Assay Buffer) to reach 5× the test concentrations (50 uM and 5 uM) and 10 uL were added to two assay plates for the duplicate wells. With each concentration tested on 2 plates, each set of 80 compounds used 4 assay plates (1 uM and 10 uM, with n=2).
For 25-hydroxycholesterol in 25% DMSO/75% Assay Buffer; 10 uL per well was used for NSB samples. Wells for Total Binding and No Receptor sample determination contained 10 uL of 25% DMSO/75% Assay Buffer per well.
Radioligand (25-[^3H]hydroxycholesterol) Preparation
Added 20 uL to all wells to reach 6 nM final in the assay.
Stock receptor solution was diluted in assay buffer to obtain 1.5 ug/mL in Assay Buffer. 20 uL was added to all wells. For No R samples, 20 uL Assay Buffer was substituted for receptor solution.
Assay plates were 96-well polypropylene V-bottom plates. 10 uL of 5× compound in 25% DMSO/75% Assay Buffer was added to Test wells. 10 uL of 25% DMSO/75% Assay Buffer was added to Total Binding or No Receptor wells. 10 uL of 5 uM 25-hydroxycholesterol in 25% DMSO/75% Assay Buffer was added to NSB wells. […] 20 uL of 1.5 ug/mL RORc receptor was added to wells (or 40 uL Assay Buffer to No R wells). Following addition to the wells, the plates were incubated 3 h at 25° C.
Using a Packard Filtermate Harvester, the filter plates were washed 4 times following transfer of the incubated samples. Plates were dry-filtered completely (2 h at 50° C. or overnight at room temperature). 50 uL Microscint 0 was added to all wells and read on Topcount protocol Inverted.
Final concentrations were as follows: 50 mM HEPES buffer (pH 7.4); 150 mM NaCl; 1 mM DTT; 5 mM MgCl2; 0.01% BSA; 5% DMSO; 0.6 ug/mL RORc receptor; 6 nM 25-[^3H]hydroxycholesterol. For NSB wells, 1 uM 25-hydroxycholesterol was also present.

Compound | IC50
CC(C)CN(Cc1ccc(-c2cccc(S(C)(=O)=O)c2)cc1)S(=O)(=O)Cc1ccccc1 [Compound 1, N-Isobutyl-N-(3′-methanesulfonyl-biphenyl-4-ylmethyl)-C-phenyl-methanesulfonamide] | 0.365 µM
CS(=O)(=O)c1cccc(-c2ccc(CN(Cc3ccc(F)cc3Cl)S(=O)(=O)Cc3ccccc3)cc2)c1 [Compound 2, N-(2-Chloro-4-fluoro-benzyl)-N-(3′-methanesulfonyl-biphenyl-4-ylmethyl)-C-phenyl-methanesulfonamide] | 2.8 µM
Cc1nn(C)c(C)c1-c1ccc(CN(CC(C)C)S(=O)(=O)Cc2ccccc2)cc1 [Compound 3, N-Isobutyl-C-phenyl-N-[4-(1,3,5-trimethyl-1H-pyrazol-4-yl)-benzyl]-methanesulfonamide] | 1.7 µM
CC(C)CN(Cc1ccc(-c2ccc(C(=O)N(C)C)cc2)cc1)S(=O)(=O)Cc1ccccc1 [Compound 5, 4′-[(Isobutyl-phenylmethanesulfonyl-amino)-methyl]-biphenyl-4-carboxylic acid dimethylamide] | 0.963 µM
CNS(=O)(=O)c1ccc(-c2ccc(CN(CC(C)C)S(=O)(=O)Cc3ccccc3)cc2)cc1 [Compound 9, 4′-[(Isobutyl-phenylmethanesulfonyl-amino)-methyl]-biphenyl-4-sulfonic acid methylamide] | 0.065 µM
Cc1n[nH]c(C)c1-c1ccc(CN(CC(C)C)S(=O)(=O)Cc2ccccc2)cc1 [Compound 10, N-[4-(3,5-Dimethyl-1H-pyrazol-4-yl)-benzyl]-N-isobutyl-C-phenyl-methanesulfonamide] | 2.8 µM
CC(C)CN([C@H](C)c1ccc(-c2ccc(C(N)=O)cc2)cc1)S(=O)(=O)Cc1ccccc1 [Compound 14, 4′-[(R)-1-(Isobutyl-phenylmethanesulfonyl-amino)-ethyl]-biphenyl-4-carboxylic acid amide] | 0.128 µM
CC(C)CN([C@H](C)c1ccc(-c2ccc(NS(C)(=O)=O)cc2)cc1)S(=O)(=O)Cc1ccccc1 [Compound 15, N-Isobutyl-N-[(R)-1-(4′-methanesulfonylamino-biphenyl-4-yl)-ethyl]-C-phenyl-methanesulfonamide] | 0.696 µM
CC(C)CN([C@@H](C)c1ccc(-c2ccc(C(N)=O)cc2)cc1)S(=O)(=O)Cc1ccccc1 [Compound 17, 4′-[(S)-1-(Isobutyl-phenylmethanesulfonyl-amino)-ethyl]-biphenyl-4-carboxylic acid amide] | 0.154 µM
CC(C)CN([C@@H](C)c1ccc(-c2ccc(S(C)(=O)=O)cc2)cc1)S(=O)(=O)Cc1ccccc1 [Compound 18, N-Isobutyl-N-[(S)-1-(4′-methanesulfonyl-biphenyl-4-yl)-ethyl]-C-phenyl-methanesulfonamide] | 0.168 µM
CC(C)CN([C@@H](C)c1ccc(-c2cccc(S(C)(=O)=O)c2)cc1)S(=O)(=O)Cc1ccccc1 [Compound 19, N-Isobutyl-N-[(S)-1-(3′-methanesulfonyl-biphenyl-4-yl)-ethyl]-C-phenyl-methanesulfonamide] | 0.691 µM
CC(C)CN([C@@H](C)c1ccc(-c2ccc(NS(C)(=O)=O)cc2)cc1)S(=O)(=O)Cc1ccccc1 [Compound 20, N-Isobutyl-N-[(S)-1-(4′-methanesulfonylamino-biphenyl-4-yl)-ethyl]-C-phenyl-methanesulfonamide] | 0.251 µM
CC(C)CN([C@H](C)c1ccc(-c2ccc(S(C)(=O)=O)cc2)cc1)S(=O)(=O)Cc1ccccc1 [Compound 21, N-Isobutyl-N-[(R)-1-(4′-methanesulfonyl-biphenyl-4-yl)-ethyl]-C-phenyl-methanesulfonamide] | 2.9 µM
CC(C)CN(Cc1ccc(-c2ccc(S(C)(=O)=O)cc2)cc1F)S(=O)(=O)Cc1ccccc1 [Compound 22, N-(3-Fluoro-4′-methanesulfonyl-biphenyl-4-ylmethyl)-N-isobutyl-C-phenyl-methanesulfonamide] | 0.019 µM
O=S(=O)(Cc1ccccc1)N(Cc1ccc(-c2ccncc2)cc1F)CC(F)(F)F [Compound 23, N-(2-Fluoro-4-pyridin-4-yl-benzyl)-C-phenyl-N-(2,2,2-trifluoro-ethyl)-methanesulfonamide] | 0.282 µM
Cc1cc(CN(CC(C)C)S(=O)(=O)Cc2ccccc2)ccc1-c1ccc(S(C)(=O)=O)cc1 [Compound 24, N-Isobutyl-N-(4′-methanesulfonyl-2-methyl-biphenyl-4-ylmethyl)-C-phenyl-methanesulfonamide] | 0.011 µM
Cc1cc(-c2ccc(S(C)(=O)=O)cc2)ccc1CN(CC(C)C)S(=O)(=O)Cc1ccccc1 [Compound 25, N-Isobutyl-N-(4′-methanesulfonyl-3-methyl-biphenyl-4-ylmethyl)-C-phenyl-methanesulfonamide] | 0.057 µM
CC(C)CN(Cc1ccc(-c2cccc(S(C)(=O)=O)c2)s1)S(=O)(=O)c1cccc(Cl)c1 [Compound 26, 3-Chloro-N-isobutyl-N-[5-(3-methanesulfonyl-phenyl)-thiophen-2-ylmethyl]-benzenesulfonamide] | 0.188 µM
CC(C)CN(Cc1ccc(-c2cccc(S(C)(=O)=O)c2)s1)S(=O)(=O)c1ccccc1C#N [Compound 27, 2-Cyano-N-isobutyl-N-[5-(3-methanesulfonyl-phenyl)-thiophen-2-ylmethyl]-benzenesulfonamide] | 3.7 µM
CC(C)CN(Cc1ccc(-c2cccc(S(C)(=O)=O)c2)s1)S(=O)(=O)c1ccccc1 [Compound 28, N-Isobutyl-N-[5-(3-methanesulfonyl-phenyl)-thiophen-2-ylmethyl]-benzenesulfonamide] | 0.476 µM
CC(C)CN(Cc1ccc(-c2cccc(S(C)(=O)=O)c2)s1)S(=O)(=O)Cc1ccccc1F [Compound 29, C-(2-Fluoro-phenyl)-N-isobutyl-N-[5-(3-methanesulfonyl-phenyl)-thiophen-2-ylmethyl]-methanesulfonamide] | 1.5 µM
CC(C)CN(Cc1ccc(-c2cccc(S(C)(=O)=O)c2)s1)S(=O)(=O)Cc1ccc(F)cc1 [Compound 30, C-(4-Fluoro-phenyl)-N-isobutyl-N-[5-(3-methanesulfonyl-phenyl)-thiophen-2-ylmethyl]-methanesulfonamide] | 1.4 µM
CC(C)CN(Cc1ccc(-c2cccc(S(C)(=O)=O)c2)s1)S(=O)(=O)Cc1cccc(F)c1 [Compound 31, C-(3-Fluoro-phenyl)-N-isobutyl-N-[5-(3-methanesulfonyl-phenyl)-thiophen-2-ylmethyl]-methanesulfonamide] | 1.3 µM
Cc1n[nH]c(C)c1S(=O)(=O)N(Cc1ccc(-c2cccc(S(C)(=O)=O)c2)s1)CC(C)C [Compound 32, 3,5-Dimethyl-1H-pyrazole-4-sulfonic acid isobutyl-[5-(3-methanesulfonyl-phenyl)-thiophen-2-ylmethyl]-amide] | 2.5 µM
CC(C)CN(Cc1ccc(-c2cccc(S(C)(=O)=O)c2)s1)S(=O)(=O)c1cccc(C#N)c1 [Compound 33, 3-Cyano-N-isobutyl-N-[5-(3-methanesulfonyl-phenyl)-thiophen-2-ylmethyl]-benzenesulfonamide] | 2.4 µM
CCn1cc(-c2ccc(CN(CC(C)C)S(=O)(=O)Cc3ccccc3)s2)cn1 [Compound 36, N-[5-(1-Ethyl-1H-pyrazol-4-yl)-thiophen-2-ylmethyl]-N-isobutyl-C-phenyl-methanesulfonamide] | 0.598 µM
CC(C)CN(Cc1ccc(-c2cccnc2)s1)S(=O)(=O)Cc1ccccc1 [Compound 37, N-Isobutyl-C-phenyl-N-(5-pyridin-3-yl-thiophen-2-ylmethyl)-methanesulfonamide] | 1.7 µM
